Source: the supplement of paper PMC10307832

Experiments:
Experiment in all cases: relative viability (nuclei count vs DMSO), 5 days (fraction); higher = more cells survive
XMD14-99 + Vorinostat = compound: CN1CCN(CC1)C2=CC(=C(C=C2)NC3=NC(=C(S3)C(=O)C4=C(C=CC=C4Cl)Cl)N)OC [XMD14-99] + O=C(CCCCCCC(=O)Nc1ccccc1)NO [Vorinostat] (partner 1 µM)
Summary of the method: (§1)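 One day after seeding in 1536-well plates, lung cancer cell lines were dosed by pin tool. Dosing was either single-drug or a fixed anchor-drug dose plus five library-drug doses (not always all listed) in √10 steps. After 5 days, nuclei were stained in one fix-and-stain step and counted on 4× images, and relative viability is the nuclei count of treated wells over that of vehicle wells, given as the median of duplicate plates.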

XMD14-99 + OSI-027 = compound: CN1CCN(CC1)C2=CC(=C(C=C2)NC3=NC(=C(S3)C(=O)C4=C(C=CC=C4Cl)Cl)N)OC [XMD14-99] + COc1cccc2cc(-c3nc([C@H]4CC[C@H](C(=O)O)CC4)n4ncnc(N)c34)[nH]c12 [OSI-027] (partner 0.5 µM)
Summary of the method: as §1

AZD1208 + Linsitinib = compound: N[C@@H]1CCCN(c2c(/C=C3\SC(=O)NC3=O)cccc2-c2ccccc2)C1 [AZD1208] + C[C@]1(O)C[C@@H](c2nc(-c3ccc4ccc(-c5ccccc5)nc4c3)c3c(N)nccn32)C1 [Linsitinib] (partner 1 µM)
Summary of the method: as §1

AZD1208 + Navitoclax = compound: N[C@@H]1CCCN(c2c(/C=C3\SC(=O)NC3=O)cccc2-c2ccccc2)C1 [AZD1208] + CC1(C)CCC(c2ccc(Cl)cc2)=C(CN2CCN(c3ccc(C(=O)NS(=O)(=O)c4ccc(N[C@H](CCN5CCOCC5)CSc5ccccc5)c(S(=O)(=O)C(F)(F)F)c4)cc3)CC2)C1 [Navitoclax] (partner 0.5 µM)
Summary of the method: as §1

Cell Line	relative viability (XMD14-99 + Vorinostat; first compound 0.08 µM)	relative viability (XMD14-99 + Vorinostat; first compound 0.8 µM)	relative viability (XMD14-99 + Vorinostat; first compound 2.53 µM)	relative viability (XMD14-99 + Vorinostat; first compound 8 µM)	relative viability (XMD14-99 + OSI-027; first compound 0.08 µM)	relative viability (XMD14-99 + OSI-027; first compound 0.8 µM)	relative viability (XMD14-99 + OSI-027; first compound 2.53 µM)	relative viability (XMD14-99 + OSI-027; first compound 8 µM)	relative viability (AZD1208 + Linsitinib; first compound 0.08 µM)	relative viability (AZD1208 + Linsitinib; first compound 0.253 µM)	relative viability (AZD1208 + Linsitinib; first compound 0.8 µM)	relative viability (AZD1208 + Linsitinib; first compound 2.53 µM)	relative viability (AZD1208 + Linsitinib; first compound 8 µM)	relative viability (AZD1208 + Navitoclax; first compound 0.08 µM)	relative viability (AZD1208 + Navitoclax; first compound 0.253 µM)	relative viability (AZD1208 + Navitoclax; first compound 0.8 µM)	relative viability (AZD1208 + Navitoclax; first compound 2.53 µM)	relative viability (AZD1208 + Navitoclax; first compound 8 µM)
LXF-289	0.754	0.696	0.726	0.738	0.839	0.84	0.819	0.616	0.982	1.01	0.966	1.01	1.01	0.955	1.01	0.932	0.978	1.03
NCI-H23	0.641	0.581	0.604	0.464	0.699	0.616	0.615	0.496	0.453	0.539	0.462	0.434	0.461	0.843	1.18	0.721	0.712	0.646
NCI-H322M	0.862	0.965	0.852	0.746	0.56	0.581	0.492	0.372	0.954	0.98	0.828	0.829	0.84	1.1	1.27	1.2	1.13	1.2
NCI-H441	0.823	0.75	0.745	0.681	0.61	0.568	0.665	0.427	0.477	0.593	0.381	0.497	0.457	0.936	0.698	0.65	0.289	0.393
NCI-H460	0.735	0.693	0.625	0.49	0.626	0.626	0.646	0.269	0.724	0.843	0.817	0.711	0.539	1.05	1.34	1.17	1.26	1.16
NCI-H520	0.686	0.635	0.658	0.454	0.251	0.262	0.231	0.206	0.904	1.07	0.808	0.819	0.83	0.973	1.22	0.991	0.838	0.767
NCI-H596	0.635	0.645	0.794	0.536	0.675	0.901	0.609	0.643	0.97	1.02	0.975	1.01	0.714	0.912	1.02	0.85	0.827	0.651
NCI-H647	0.522	0.581	0.648	0.582	0.621	0.71	0.746	0.605	1.22	1.1	1.06	1.03	1.06	0.934	0.974	1.14	1.01	0.801
NCI-H727	1.25	0.989	1.06	0.994	0.617	0.493	0.584	0.383	0.29	0.219	0.264	0.259	0.225	0.421	0.357	0.331	0.316	0.29
NCI-H838	0.685	0.626	0.577	0.414	0.481	0.403	0.356	0.298	0.992	1.09	0.815	1.02	0.817	1.07	1.18	1.1	1.12	1.01
NCI-H1355	0.636	0.604	0.586	0.556	0.395	0.367	0.337	0.292	0.846	0.921	0.718	0.737	0.695	0.963	0.861	0.785	0.932	0.853
NCI-H1395	0.889	0.891	0.761	0.527	0.687	0.639	0.654	0.584	0.989	1.15	0.979	1.07	0.881	1.05	1.23	0.956	1.02	0.872
NCI-H1437	0.797	0.66	0.641	0.382	0.892	0.842	0.804	0.68	1.03	1.09	0.887	0.832	0.866	1.13	1.11	1.02	1.16	1.07
NCI-H1651	0.614	0.487	0.534	0.448	0.815	0.691	0.622	0.531	0.912	0.619	0.758	0.852	0.83	0.879	0.929	0.858	0.887	0.774
NCI-H1666	1.04	0.967	0.947	0.895	0.881	0.731	0.799	0.651	0.831	0.677	0.748	0.671	0.657	0.792	0.802	0.706	0.801	0.942
NCI-H1734	0.803	0.785	0.799	0.581	0.556	0.524	0.55	0.437	0.728	0.807	0.795	0.791	0.603	0.753	0.932	0.714	0.724	0.582
NCI-H1755	0.661	0.742	0.686	0.608	0.709	0.712	0.668	0.517	0.993	0.995	0.913	0.998	0.95	0.991	0.989	1.02	0.952	0.786
NCI-H1793	0.767	0.916	0.627	0.52	0.269	0.26	0.232	0.199	0.765	0.804	0.564	0.967	0.583	0.336	0.47	0.354	0.469	0.364

Cell Line	relative viability (XMD14-99 + Vorinostat; first compound 0.08 µM)	relative viability (XMD14-99 + Vorinostat; first compound 0.8 µM)	relative viability (XMD14-99 + Vorinostat; first compound 2.53 µM)	relative viability (XMD14-99 + Vorinostat; first compound 8 µM)	relative viability (XMD14-99 + OSI-027; first compound 0.08 µM)	relative viability (XMD14-99 + OSI-027; first compound 0.8 µM)	relative viability (XMD14-99 + OSI-027; first compound 2.53 µM)	relative viability (XMD14-99 + OSI-027; first compound 8 µM)	relative viability (AZD1208 + Linsitinib; first compound 0.08 µM)	relative viability (AZD1208 + Linsitinib; first compound 0.253 µM)	relative viability (AZD1208 + Linsitinib; first compound 0.8 µM)	relative viability (AZD1208 + Linsitinib; first compound 2.53 µM)	relative viability (AZD1208 + Linsitinib; first compound 8 µM)	relative viability (AZD1208 + Navitoclax; first compound 0.08 µM)	relative viability (AZD1208 + Navitoclax; first compound 0.253 µM)	relative viability (AZD1208 + Navitoclax; first compound 0.8 µM)	relative viability (AZD1208 + Navitoclax; first compound 2.53 µM)	relative viability (AZD1208 + Navitoclax; first compound 8 µM)
NCI-H1915	0.519	0.491	0.486	0.377	0.629	0.548	0.487	0.415	1.15	1.09	1.06	1.1	1.11	0.794	0.797	0.839	0.832	0.825
NCI-H1944	0.547	0.586	0.486	0.449	0.382	0.44	0.358	0.278	1.14	1.19	1.01	0.953	0.82	1.05	1.01	0.977	1.01	0.832
NCI-H1975	0.675	0.673	0.612	0.475	0.825	0.822	0.653	0.535	0.991	1	0.911	0.981	0.975	1.19	1.05	1.14	1.01	1.09
NCI-H1993	0.595	0.889	0.793	0.714	0.575	0.555	0.53	0.53	–	0.722	0.731	0.739	0.654	–	0.824	0.606	0.812	0.691
NCI-H2009	0.815	0.727	0.63	0.423	0.611	0.607	0.508	0.273	1.22	1.13	1.18	1.14	1.12	1.2	1.14	1.12	1.21	1.15
NCI-H2023	0.572	0.648	0.732	0.363	0.42	0.427	0.299	0.209	0.651	0.56	0.576	0.633	0.568	1.02	0.99	0.977	0.934	0.959
NCI-H2085	0.768	0.788	0.768	0.613	0.725	0.815	0.624	0.42	0.913	1.04	0.892	0.939	0.946	1.02	1.29	1.13	1.14	1.02
NCI-H2087	0.617	0.668	0.864	0.449	0.524	0.487	0.45	0.299	0.87	0.941	0.934	1	0.787	1.05	1.07	1.03	0.91	0.836
NCI-H2126	0.694	0.806	0.694	0.579	0.666	0.66	0.669	0.432	0.678	0.647	0.65	0.633	0.623	0.902	0.753	0.812	0.788	0.731
NCI-H2228	0.719	0.683	0.727	0.33	0.687	0.583	0.505	0.199	0.493	0.596	0.546	–	0.356	0.782	0.766	0.713	–	0.51
NCI-H2347	0.533	0.598	0.455	0.358	0.401	0.349	0.378	0.276	0.936	0.94	0.91	0.942	0.909	0.917	0.94	0.685	0.794	0.716
NCI-H2405	1	1.07	1	0.514	0.593	0.606	0.607	0.5	0.8	0.789	0.737	0.883	0.853	0.78	0.792	0.84	0.791	0.789
NCI-H3122	0.962	0.991	0.923	0.707	0.815	0.811	0.623	0.163	1.09	1.03	1.03	1.02	1.08	1.04	1	0.995	1.05	1.08
PC-3 [JPC-3]	1.04	0.843	0.756	0.539	0.769	0.701	0.638	0.541	1.05	1.01	1.02	1.06	1	0.859	0.953	0.792	0.809	0.828
PC-14	0.636	0.628	0.438	0.285	0.809	0.806	0.644	0.29	0.942	1.12	0.977	1	0.914	1.02	0.988	1.01	1.02	1
RERF-LC-KJ	0.788	0.685	0.553	0.595	0.572	0.556	0.527	0.366	0.892	0.883	0.815	0.794	0.702	1.03	0.908	0.959	0.921	0.662
SK-LU-1	0.735	0.74	0.813	0.479	0.34	0.391	0.301	0.213	1	1.21	1.07	1.21	0.795	0.56	0.874	0.883	0.774	0.813
